Results reported in patent US9821070B2 (OPKO Biologics Ltd., priority 2012, dated 2017).

Experiments:
GLP-1 receptor = GLP-1 receptor (Homo sapiens, UniProt P43220); settings: cAMP Hunter CHO-K1 GLP1R
Description: Cells cAMP concentrations were quantified by HTRF assay (Cisbio 62AM4PEB) and EC50 parameter was analyzed by PRISM software. The cAMP Hunter™ CHO-K1 GLP1R secretes cAMP upon binding of the ligand to the receptor. […] Ligands were diluted in diluent contains IBMX and were added in duplicate to the culture wells for 30 min at 37° C. with 5% CO2. […] The dose dependent curves were established and the binding affinities (EC50) of various ligands were calculated using PRISM software by applying the best fit dose response model (Four parameters).

[1] = Obese (ob/ob) mouse model, Study 2 (MOD-6031 chronic pharmacology); format: in vivo, male ob/ob mice; settings: OXM 6000 nmoles/kg bid sc for 32 days
Description: Body weight, food and water intake were recorded daily. […] Body weight, food and water intake were measured daily.
Oral glucose tolerant test (OGTT) studies were performed on days 2 and day 30 (FIGS. 10 and 11, respectively).

GLP-1 receptor, sequence (P43220 24-463): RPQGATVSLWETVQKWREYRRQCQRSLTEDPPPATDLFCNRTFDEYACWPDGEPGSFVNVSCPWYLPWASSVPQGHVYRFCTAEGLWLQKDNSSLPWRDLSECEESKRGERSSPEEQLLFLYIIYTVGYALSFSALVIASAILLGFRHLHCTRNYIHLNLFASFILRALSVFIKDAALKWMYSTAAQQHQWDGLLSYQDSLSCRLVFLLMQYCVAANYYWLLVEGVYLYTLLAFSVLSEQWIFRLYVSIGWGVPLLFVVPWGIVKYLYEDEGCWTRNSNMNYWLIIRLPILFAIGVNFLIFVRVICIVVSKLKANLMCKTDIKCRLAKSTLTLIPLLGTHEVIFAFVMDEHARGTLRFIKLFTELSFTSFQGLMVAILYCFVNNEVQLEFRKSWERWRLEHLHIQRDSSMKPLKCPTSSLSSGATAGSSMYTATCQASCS

Substance: Oxyntomodulin [OXM]
- higher GLP-1 receptor binding activation compared to the heterogeneous PEG30-FMS-OXM (GLP-1 receptor): 5.9 fold
- body weight reduction over the study [1]: 10.3%
